Measured values taken from US20160219881A1, “HERBICIDALLY ACTIVE 2-HALOGEN-4-ALKYNYL-PHENYL-PYRAZOLIDINE-DIONE OR PYRROLIDINE-DIONE DERIVATIVES” (SYNGENTA LIMITED, priority 2013, published 2016).

Legend:
[1] = test system: Alopecurus myosuroides (ALOMY); experiment: Test 1A glasshouse assay, post-emergence herbicidal activity; format: in vivo; conditions: 312 h, 13 days after application, read-out: Post-Emergence Herbicidal Activity (% Phytotoxicity) ALOMY
Method: (§1) Seeds of a variety of test species are sown in standard soil (usually sandy soil) in pots. After cultivation for one day (pre-emergence) or after 8 days cultivation (post-emergence) under controlled conditions in a glasshouse (at 24/16° C., day/night; 14 hours light; 65% humidity), the plants are sprayed with an aqueous spray solution derived from the formulation of the technical active ingredient (compound) in acetone/water (50:50) solution containing 0.5% Tween 20 (polyoxyethylene sorbitan monolaurate, CAS RN 9005-64-5). The test plants are then grown under controlled conditions in a glasshouse (at 24/16° C., day/night; 14 hours light; 65% humidity) and watered twice daily. 13 days after application of the test compounds, for pre- and post-emergence, the test is evaluated visually for percentage phytotoxicity to each plant (where 100%=total damage to plant; 0%=no damage to plant).
(§2) Alopecurus myosuroides (ALOMY), Setaria faberi (SETFA), Echinochloa crus-galli (ECHCG), Amaranthus retroflexus (AMARE), and Abutilon theophasti Medik. (ABUTH, common English name “velvetleaf”). Of these, Alopecurus myosuroides (ALOMY), Setaria faberi (SETFA), and Echinochloa crus-galli (ECHCG) are grassy monocotyledonous weeds. […]

[2] = test system: Echinochloa crus-galli (ECHCG); experiment: as above; format: in vivo; conditions: 312 h, 13 days after application, read-out: Post-Emergence Herbicidal Activity (% Phytotoxicity) ECHCG
Method: as §1, §2

[3] = test system: Alopecurus myosuroides (ALOMY); experiment: Test 1A glasshouse assay, pre-emergence herbicidal activity; format: in vivo; conditions: 312 h, 13 days after application, read-out: Pre-Emergence Herbicidal Activity (% Phytotoxicity) ALOMY
Method: as §1
(§3) Alopecurus myosuroides (ALOMY), Setaria faberi (SETFA), Echinochloa crus-galli (ECHCG), Amaranthus retroflexus (AMARE), and Abutilon theophasti Medik. (ABUTH, common English name “velvetleaf”). Of these, Alopecurus myosuroides (ALOMY), Setaria faberi (SETFA), and Echinochloa crus-galli (ECHCG) are grassy monocotyledonous weeds.
(§4) Lolium perenne (LOLPE), Triticum aestivum (TRZAW, winter wheat), Alopecurus myosuroides (ALOMY), Echinochloa crus-galli (ECHCG), and Avena fatua (AVEFA). All these are grassy monocotyledonous weeds and/or (for wheat) grassy crops.

[4] = test system: Echinochloa crus-galli (ECHCG); experiment: as above; format: in vivo; conditions: 312 h, 13 days after application, read-out: Pre-Emergence Herbicidal Activity (% Phytotoxicity) ECHCG
Method: as §1, §2

[5] = test system: Amaranthus retroflexus (AMARE); experiment: as above; format: in vivo; conditions: 312 h, 13 days after application, read-out: Pre-Emergence Herbicidal Activity (% Phytotoxicity) AMARE
Method: as §1, §3

Setaria faberi (SETFA) [6] = experiment: as above; format: in vivo; conditions: 312 h, 13 days after application, read-out: Pre-Emergence Herbicidal Activity (% Phytotoxicity) SET FA
Method: as §1, §3

[7] = test system: Amaranthus retroflexus (AMARE); experiment: Test 1A glasshouse assay, post-emergence herbicidal activity; format: in vivo; conditions: 312 h, 13 days after application, read-out: Post-Emergence Herbicidal Activity (% Phytotoxicity) AMARE
Method: as §1, §3

[8] = test system: Abutilon theophasti Medik. (ABUTH); experiment: as above; format: in vivo; conditions: 312 h, 13 days after application, read-out: Post-Emergence Herbicidal Activity (% Phytotoxicity) ABUTH
Method: as §1, §3

Setaria faberi (SETFA) [9] = experiment: as above; format: in vivo; conditions: 312 h, 13 days after application, read-out: Post-Emergence Herbicidal Activity (% Phytotoxicity) SET FA
Method: as §1, §3

[10] = test system: Johnsongrass (Sorghum halepense); conditions: gibberellic acid mixed with clethodim; cited from earlier work
volunteer corn = conditions: gibberellic acid mixed with clethodim; cited from earlier work
[11] = test system: Triticum aestivum (TRZAW, winter wheat, variety ‘Hereward’); experiment: Test 1A glasshouse assay, post-emergence herbicidal activity; format: in vivo; conditions: 312 h, 250 g/ha, 13 days after application, read-out: Post-Emergence Herbicidal Activity (% Phytotoxicity) TRZAW
Method: as §1
(§5) Lolium perenne (LOLPE), Triticum aestivum (TRZAW, winter wheat, variety ‘Hereward’), Alopecurus myosuroides (ALOMY), Echinochloa crus-galli (ECHCG), and Avena fatua (AVEFA). All these are grassy monocotyledonous weeds and/or (for wheat) grassy crops.

Lolium perenne (LOLPE) [12] = experiment: as above; format: in vivo; conditions: 312 h, 250 g/ha, 13 days after application, read-out: Post-Emergence Herbicidal Activity (% Phytotoxicity) LOLPE
Method: as §1, §5

Avena fatua (AVEFA) [13] = experiment: as above; format: in vivo; conditions: 312 h, 250 g/ha, 13 days after application, read-out: Post-Emergence Herbicidal Activity (% Phytotoxicity) AVEFA
Method: as §1, §5

[14] = test system: Triticum aestivum (TRZAW, winter wheat); experiment: Test 1A glasshouse assay, pre-emergence herbicidal activity; format: in vivo; conditions: 312 h, 250 g/ha, 13 days after application, read-out: Pre-Emergence Herbicidal Activity (% Phytotoxicity) TRZAW
Method: as §1, §4

Lolium perenne (LOLPE) [15] = experiment: as above; format: in vivo; conditions: 312 h, 250 g/ha, 13 days after application, read-out: Pre-Emergence Herbicidal Activity (% Phytotoxicity) LOLPE
Method: as §1, §4

Avena fatua (AVEFA) [16] = experiment: as above; format: in vivo; conditions: 312 h, 250 g/ha, 13 days after application, read-out: Pre-Emergence Herbicidal Activity (% Phytotoxicity) AVEFA
Method: as §1, §4

[17] = test system: Abutilon theophasti Medik. (ABUTH); experiment: as above; format: in vivo; conditions: 312 h, 13 days after application, read-out: Pre-Emergence Herbicidal Activity (% Phytotoxicity) ABUTH
Method: as §1, §3

Row | Structure (SMILES) | inhibition at 250 g/ha [1] [%] | inhibition at 250 g/ha [2] [%] | inhibition at 250 g/ha [3] [%] | inhibition at 250 g/ha [4] [%] | inhibition at 250 g/ha [5] [%] | inhibition at 250 g/ha (Setaria faberi (SETFA) [6]) [%] | inhibition at 250 g/ha [7] [%] | inhibition at 250 g/ha [8] [%] | inhibition at 250 g/ha (Setaria faberi (SETFA) [9]) [%] | inhibition at 30 g/ha [1] [%] | inhibition at 30 g/ha [2] [%] | inhibition at 250 g/ha [17] [%] | inhibition at 30 g/ha [7] [%] | inhibition at 30 g/ha [8] [%] | inhibition at 30 g/ha (Setaria faberi (SETFA) [9]) [%] | other results
1 | CC#Cc1ccc(C2C(=O)N(C)N(C)C2=O)c(C)c1 [Compound A2] | 70 | 90 | 80 | 70 | 10 | 90 | 100 | 10 | 80 |  |  |  |  |  |  | 
2 | C=C1C[C@]23C[C@@]1(O)CC[C@H]2[C@@]12C=C[C@H](O)[C@@](C)(C(=O)O1)[C@H]2[C@@H]3C(=O)O [gibberellic acid] |  |  |  |  |  |  |  |  |  |  |  |  |  |  |  | control and/or speed of control of Johnsongrass (Sorghum halepense) [10]: increased clethodim's control and/or speed of control; control and/or speed of control of volunteer corn (volunteer corn): increased clethodim's control and/or speed of control
3 | CC#Cc1cc(C)c(C2C(=O)CN(Cc3ccccn3)C2=O)c(C)c1 (stereo not drawn) [Compound A48, 3-(2,6-dimethyl-4-prop-1-ynyl-phenyl)-1-(2-pyridylmethyl)pyrrolidine-2,4-dione] | 90 | 70 | 90 | 80 |  |  |  |  |  |  |  |  |  |  |  | inhibition at 250 g/ha [11]: 30%; inhibition at 250 g/ha (Lolium perenne (LOLPE) [12]): 70%; inhibition at 250 g/ha (Avena fatua (AVEFA) [13]): 20%; inhibition at 250 g/ha [14]: 40%; inhibition at 250 g/ha (Lolium perenne (LOLPE) [15]): 80%; inhibition at 250 g/ha (Avena fatua (AVEFA) [16]): 40%
4 | CC#Cc1cc(C)c(C2C(=O)N3CCOCCN3C2=O)c(C)c1 [Compound A28] | 90 | 100 | 100 | 100 | 30 | 100 | 30 | 70 | 100 | 60 | 80 | 10 | 10 | 60 | 70 | inhibition at 30 g/ha [3]: 70%; inhibition at 30 g/ha [4]: 80%; inhibition at 30 g/ha [5]: 20%; inhibition at 30 g/ha [17]: 10%; inhibition at 30 g/ha (Setaria faberi (SETFA) [6]): 50%
5 | CC#Cc1cc(OC)c(C2C(=O)N(C)N(C)C2=O)c(OC)c1 [Compound A5] | 90 | 100 | 90 | 90 | 10 | 100 | 0 | 0 | 90 | 70 | 90 | 0 | 0 | 0 | 80 | 
6 | CC#Cc1cc(C)c(-c2c(OC(=O)C(C)(C)C)n3n(c2=O)CCCCC3)c(C)c1 [Compound P3, [2-(2,6-dimethyl-4-prop-1-ynyl-phenyl)-1-oxo-6,7,8,9-tetrahydro-5H-pyrazolo[1,2-a]diazepin-3-yl]2,2-dimethylpropanoate] | 50 | 100 | 20 | 20 | 20 | 70 |  | 0 | 70 | 40 | 60 | 10 | 0 | 10 | 20 | 
7 | CC#Cc1cc(C)c(C2C(=O)N(CC)N(CC)C2=O)c(C)c1 [Compound A6] | 80 | 80 | 50 | 80 | 70 | 70 | 30 | 30 | 80 | 20 | 40 | 30 | 0 | 30 | 70 | 
8 | CC#Cc1cc(C)c(C2C(=O)N3CCCCN3C2=O)c(C)c1 [Compound A18] | 80 | 100 | 100 | 90 | 40 | 90 | 80 | 80 | 90 | 50 | 20 | 50 | 40 | 70 | 70 | inhibition at 30 g/ha [3]: 60%; inhibition at 30 g/ha [4]: 60%; inhibition at 30 g/ha [5]: 20%; inhibition at 30 g/ha [17]: 40%; inhibition at 30 g/ha (Setaria faberi (SETFA) [6]): 50%
9 | CC#Cc1cc(C)c(-c2c(OC(C)=O)n(C)n(C)c2=O)c(C)c1 [Compound P2] | 90 | 100 | 90 | 100 | 70 | 90 | 30 | 60 | 90 | 40 | 80 | 0 | 0 | 10 | 40 | 
